# Patent US11779559B2, “Compositions for treating fungal and bacterial biofilms and methods of using the same” (priority 2017, dated 2023)
# Columns and labels:
# C. albicans = assay: Sustained inhibition biofilm assay, fungal; format: cell-based, Candida albicans; conditions: sustained inhibition assay; C. albicans; 1% amino acid (unless specifically noted); p≤0.001
# Procedure: Two types of biofilm assays were performed: a sustained inhibition assay and a disruption assay. The sustained inhibition assay assesses the compound's ability to prevent biofilm development throughout all stages of biofilm formation, while the disruption assay assesses the compound's ability to break up an existing mature biofilm. These assays are described in detail in the following article: Lohse, M. B., Gulati, M., Valle Arevalo, A., Fishburn, A., Johnson, A. D., and Nobile, C. […] Antimicrobial Agents and Chemotherapy 61: e02749-16.
# (§1) All bacterial biofilm solutions were prepared in Trypic Soy Broth (TSB), supplemented with 1% glucose (henceforth referred to as TSB-G). All subsequent procedures were performed in a manner that maintained sterility. A solution of each amino acid to be tested was prepared in weight to volume concentrations ranging from 0.1-5.0%. Amino acids were also tested in combinations. Compound solutions were homogenized with gentle agitation in the dark (4° C., 24 hours) before use.
# Fungal strains were streaked on Yeast Peptone Dextrose (YPD) agar plates and incubated at 30° C. for 48 hours. A single colony from each strain to be tested was inoculated into YPD broth and grown for 12 hours, at 30° C., shaking at 225 rpm. […] The cells were allowed to adhere to the plate for 90 minutes at 37° C. with shaking (350 rpm). […] The plate was further incubated for 24 hours at 37° C. with shaking (350 rpm). Media was carefully aspirated and the biofilm was measured by optical density at 600 nm. […] The cells were allowed to adhere to the plate for 90 minutes at 37° C. with shaking (350 rpm). […] The plate was further incubated for 24 hours at 37° C. with shaking (350 rpm). […] The plate was further incubated for 24 hours at 37° C. with shaking (350 rpm). Media was carefully aspirated and the biofilm was measured by optical density at 600 nm.
# [1] = system: bacteria (S. aureus) biofilm and fungal (C. albicans) biofilm; assay: Sustained inhibition biofilm assay, bacterial and fungal taken together; format: cell-based; conditions: sustained inhibition assay; bacterial and fungal biofilm; 1% amino acid (unless specifically noted); p≤0.001
# Procedure: (§2) Two types of biofilm assays were performed: a sustained inhibition assay and a disruption assay. The sustained inhibition assay assesses the compound's ability to prevent biofilm development throughout all stages of biofilm formation, while the disruption assay assesses the compound's ability to break up an existing mature biofilm. These assays are described in detail in the following article: Lohse, M. B., Gulati, M., Valle Arevalo, A., Fishburn, A., Johnson, A. D., and Nobile, C. J. (2017) Assessment and optimizations of Candida albicans in vitro biofilm assays. Antimicrobial Agents and Chemotherapy 61: e02749-16.
# as §1, with “For fungal biofilm assays, all solutions were prepared in RPMI 1640 medium. All bacterial” for “All bacterial”
# (§3) Fungal strains were streaked on Yeast Peptone Dextrose (YPD) agar plates and incubated at 30° C. for 48 hours. A single colony from each strain to be tested was inoculated into YPD broth and grown for 12 hours, at 30° C., shaking at 225 rpm. For the fungal biofilm inhibition assay, 1 μl of saturated overnight cell culture was added to either 80 μL of RPMI-1640 or RPMI-1640 supplemented with the amino acid compound solution to be tested, in a 384-well plate. […] Media was carefully aspirated and the biofilm was measured by optical density at 600 nm. […] Media was carefully aspirated and the biofilm was measured by optical density at 600 nm. […]
# (§4) Bacterial strains were streaked on Blood Agar plates (5% sheep blood in Tryptic Soy Agar) and incubated at 37° C. for 24 hours. […] Media was carefully aspirated and the biofilm was measured by optical density at 600 nm. […]
# [2] = system: bacteria (S. aureus) biofilm and fungal (C. albicans) biofilm; assay: Disruption biofilm assay, bacterial and fungal taken together; format: cell-based; conditions: disruption assay; bacterial and fungal biofilm; 1% amino acid (unless specifically noted); p≤0.001
# Procedure: as §2
# as §1, with “For fungal biofilm assays, all solutions were prepared in RPMI 1640 medium. All bacterial” for “All bacterial”
# as §3, §4
# [3] = system: fungal and bacterial biofilms; assay: Biofilm assays (sustained inhibition and disruption), fungal and bacterial biofilms; format: cell-based; conditions: single component on its own
# Procedure: as §2
# as §1, with “For fungal biofilm assays, all solutions were prepared in RPMI 1640 medium. All bacterial” for “All bacterial”
# All biofilm assays were performed using 384-well non-tissue culture treated polystyrene plates. The fungal species tested are as follows: Candida albicans, Candida guilhermondii, Candida parapsilosis, Candida glabrata, Candida tropicalis, Candida dubliniensis, and Candida auris. The bacterial species tested are as follows: Staphylococcus aureus (standard wild type and methicillin-resistant strain USA300), Escherichia coli, Pseudomonas aeruginosa and Staphylococcus epidermidis.
# Fungal strains were streaked on Yeast Peptone Dextrose (YPD) agar plates and incubated at 30° C. for 48 hours. A single colony from each strain to be tested was inoculated into YPD broth and grown for 12 hours, at 30° C., shaking at 225 rpm. For the fungal biofilm inhibition assay, 1 μl of saturated overnight cell culture was added to either 80 μL of RPMI-1640 or RPMI-1640 supplemented with the amino acid compound solution to be tested, in a 384-well plate. The cells were allowed to adhere to the plate for 90 minutes at 37° C. with shaking (350 rpm). Loosely bound cells were washed once with phosphate buffered saline (PBS) and 80 ul of RPMI-1640, or RPMI-1640 supplemented with the amino acid compound solution was added to the plate. The plate was further incubated for 24 hours at 37° C. with shaking (350 rpm). Media was carefully aspirated and the biofilm was measured by optical density at 600 nm. Twelve replicates were performed for each tested condition and the reported values are normalized to the control (RPMI-1640 media only). For the fungal biofilm disruption assays, 80 μL of RPMI-1640 was added to the plate, along with 1 μL of overnight cell culture. The cells were allowed to adhere to the plate for 90 minutes at 37° C. with shaking (350 rpm). Loosely bound cells were washed once with PBS and 80 μL of RPMI-1640 was added to the plate. The plate was further incubated for 24 hours at 37° C. with shaking (350 rpm). Media was carefully aspirated from the mature biofilm and 80 μL of RPMI-1640, or RPMI-1640 supplemented with the amino acid compound solution to be tested, was gently added to the plate. The plate was further incubated for 24 hours at 37° C. with shaking (350 rpm). Media was carefully aspirated and the biofilm was measured by optical density at 600 nm. Twelve replicates were performed for each tested condition and the reported values are normalized to the control (RPMI-1640 media only).
# Bacterial strains were streaked on Blood Agar plates (5% sheep blood in Tryptic Soy Agar) and incubated at 37° C. for 24 hours. A single colony from each strain to be tested was inoculated in a TSB broth and grown for 12 hours, at 37° C. with shaking (225 rpm).
smiles,measurement,setting,value
"N[C@@H](CC(=O)O)C(=O)O [Aspartic Acid, L-aspartic acid]",Reduce F Biofilm,C. albicans,●● (two dots [ie. ••] signifies major effect (greater than about 30% change))
same,Reduce Both,[1],●● (two dots [ie. ••] signifies major effect (greater than about 30% change))
same,Reduce Both,[2],●● (two dots [ie. ••] signifies major effect (greater than about 30% change))
same,Effect on biofilms,[3],very active against biofilms
